Values joined by “and” are separate entries in the source; they are usually repeats but may differ in a detail not shown here. Equal entries are not always repeated. Inconclusive results and toxic doses are left out. Rule for the calls: active = survival T/C of 150% or more; inactive = T/C below 125% in these data. Peptide text beside a SMILES is read from it. * marks the point of attachment. Boc = CC(C)(C)OC(=O)*
Tested on: P388 leukemia ip, CD2F1 mice, survival T/C
Experiment: NCI In Vivo Anticancer Drug Screen. Data for tumor model P388 Leukemia (intraperitoneal) in CD2F1 (CDF1) mice
Details: endpoint: median survival time, higher = longer survival
In short: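 Mice carrying the transplanted tumor received test compound or vehicle. Survival was recorded in each group, and the value is the treated-group measurement divided by that of the vehicle-treated control group.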

[1] = dose: 50.0 mg/kg/injection, schedule: Q01DX009 (ip), vehicle: saline
[2] = dose: 100.0 mg/kg/injection, schedule: Q01DX009 (ip), vehicle: saline
[3] = dose: 200.0 mg/kg/injection, schedule: Q01DX009 (ip), vehicle: saline
[4] = dose: 200.0 mg/kg/injection, schedule: Q01DX001 (ip), vehicle: saline with Tween-80
[5] = dose: 400.0 mg/kg/injection, schedule: Q01DX001 (ip), vehicle: saline with Tween-80
[6] = dose: 50.0 mg/kg/injection, schedule: Q01DX009 (ip), vehicle: saline with Tween-80
[7] = dose: 100.0 mg/kg/injection, schedule: Q01DX009 (ip), vehicle: saline with Tween-80
[8] = dose: 50.0 mg/kg/injection, schedule: Q01DX005 (ip), vehicle: saline with Tween-80
[9] = dose: 100.0 mg/kg/injection, schedule: Q01DX005 (ip), vehicle: saline with Tween-80
[10] = dose: 200.0 mg/kg/injection, schedule: Q01DX005 (ip), vehicle: saline with Tween-80
[11] = dose: 50.0 mg/kg/injection, schedule: Q01DX005 (ip), vehicle: Klucel (hydroxypropylcellulose) (HPC)
[12] = dose: 100.0 mg/kg/injection, schedule: Q01DX005 (ip), vehicle: Klucel (hydroxypropylcellulose) (HPC)
[13] = dose: 200.0 mg/kg/injection, schedule: Q01DX005 (ip), vehicle: Klucel (hydroxypropylcellulose) (HPC)
[14] = dose: 200.0 mg/kg/injection, schedule: Q01DX009 (ip), vehicle: saline with Tween-80
[15] = dose: 50.0 mg/kg/injection, schedule: Q01DX009 (ip), vehicle: Klucel (hydroxypropylcellulose) (HPC)
[16] = dose: 100.0 mg/kg/injection, schedule: Q01DX009 (ip), vehicle: Klucel (hydroxypropylcellulose) (HPC)
[17] = dose: 200.0 mg/kg/injection, schedule: Q01DX009 (ip), vehicle: Klucel (hydroxypropylcellulose) (HPC)

Measured: T/C

O=C1C2C3C=CC(O3)C2C(=O)N1CCN1CCOCC1 (stereo not given)
inactive: dose: 25.0 mg/kg/injection, schedule: Q01DX005 (ip), vehicle: water 96 % of control | dose: 50.0 mg/kg/injection, schedule: Q01DX005 (ip), vehicle: water 97 % of control | dose: 100.0 mg/kg/injection, schedule: Q01DX005 (ip), vehicle: other 93 % of control | dose: 100.0 mg/kg/injection, schedule: Q01DX005 (ip), vehicle: water 102 % of control | dose: 200.0 mg/kg/injection, schedule: Q01DX005 (ip), vehicle: other 101 % of control

CC(C)c1ccc(C2NC(=S)NC(=O)C2C#N)cc1 (stereo not given)
inactive: [1] 101 % of control | [2] 100 % of control | [3] 98 % of control

CNC(=S)N/N=C/c1nc2ccccc2c(=O)n1-c1ccc(Cl)cc1
inactive: dose: 100.0 mg/kg/injection, schedule: Q01DX001 (ip), vehicle: saline with Tween-80 102 % of control | [4] 98 % of control | [5] 92 % of control

CCCCCCCCOC(=O)CP(=O)(O)O
inactive: [6] 100 % of control | [7] 96 % of control

O=C(NC1COB(c2ccc(Br)cc2)OC1c1ccc([N+](=O)[O-])cc1)C(Cl)Cl (stereo not given)
inactive: dose: 60.0 mg/kg/injection, schedule: Q01DX005 (ip), vehicle: Klucel (hydroxypropylcellulose) (HPC) 102 % of control | dose: 120.0 mg/kg/injection, schedule: Q01DX005 (ip), vehicle: Klucel (hydroxypropylcellulose) (HPC) 102 % of control | dose: 240.0 mg/kg/injection, schedule: Q01DX005 (ip), vehicle: Klucel (hydroxypropylcellulose) (HPC) 103 % of control

C/C(=C1/N=C(c2ccccc2)OC1=O)c1ccccc1
inactive: [8] 98 % of control | [9] 96 % of control | [10] 98 % of control

Cc1cccc(N=Nc2c(-c3ccccc3)nn(C(=S)S)c2C)c1C
inactive: dose: 12.5 mg/kg/injection, schedule: Q01DX001 (ip), vehicle: saline with Tween-80 100 % of control | dose: 25.0 mg/kg/injection, schedule: Q01DX001 (ip), vehicle: saline with Tween-80 96 % of control | dose: 50.0 mg/kg/injection, schedule: Q01DX001 (ip), vehicle: saline with Tween-80 96 % of control | [4] 91 % of control | [5] 99 % of control

C=Cn1c([N+](=O)[O-])cnc1/C=C\c1ccc(C(=O)NC(C)C)cc1
inactive: dose: 100.0 mg/kg/injection, schedule: Q04DX002 (ip), vehicle: gum acacia 92 % of control | dose: 200.0 mg/kg/injection, schedule: Q04DX002 (ip), vehicle: gum acacia 96 % of control | dose: 400.0 mg/kg/injection, schedule: Q04DX002 (ip), vehicle: gum acacia 92 % of control

CC1(CSc2ccc3ccccc3c2)CC(=O)N1 (stereo not given)
inactive: dose: 100.0 mg/kg/injection, schedule: Q01DX001 (ip), vehicle: suspension in saline 99 % of control | dose: 200.0 mg/kg/injection, schedule: Q01DX001 (ip), vehicle: suspension in saline 99 % of control | dose: 400.0 mg/kg/injection, schedule: Q01DX001 (ip), vehicle: suspension in saline 98 % of control

[CH3][Sb]([CH3])([CH3])([CH3])[I]
inactive: [1] 98 % of control | [2] 100 % of control | [3] 95 % of control

COC(=O)C(CO)NC(=O)C(Cc1ccccc1)NC(=O)OC(C)(C)C (stereo not drawn) (Boc-Phe-Ser-OMe; configuration not given here)
inactive: [11] 99 % of control | [12] 105 % of control | [13] 100 % of control

NC(CCC(=O)O)(C(=O)O)c1ccccc1 (stereo not given)
inactive: dose: 0.19 mg/kg/injection, schedule: Q01DX009 (ip), vehicle: saline 101 % of control | dose: 0.38 mg/kg/injection, schedule: Q01DX009 (ip), vehicle: saline 104 % of control | dose: 0.75 mg/kg/injection, schedule: Q01DX009 (ip), vehicle: saline 100 % of control | dose: 1.5 mg/kg/injection, schedule: Q01DX009 (ip), vehicle: saline with Tween-80 98 % of control | dose: 1.5 mg/kg/injection, schedule: Q01DX009 (ip), vehicle: saline 109 % of control | dose: 3.0 mg/kg/injection, schedule: Q01DX009 (ip), vehicle: saline with Tween-80 98 % of control | [7] 92 % of control | [14] 93 % of control

CC(C)(C)c1ccc(C(=O)O)c(O)c1.CC(C)(C)c1ccc(C(=O)O)c(O)c1.[Cu]
inactive: dose: 12.5 mg/kg/injection, schedule: Q04DX003 (ip), vehicle: saline 102 % of control | dose: 25.0 mg/kg/injection, schedule: Q04DX003 (ip), vehicle: saline 94 % of control | dose: 50.0 mg/kg/injection, schedule: Q04DX003 (ip), vehicle: saline 103 % of control

Cc1ccc(NC(=O)N2CCCCC2)cc1[N+](=O)[O-]
inactive: [11] 99 % of control | [12] 98 % of control | [13] 96 % of control

COc1c2c(cc3c1OCO3)CCN(C)C2
inactive: dose: 10.0 mg/kg/injection, schedule: Q01DX009 (ip), vehicle: saline 106 % of control | dose: 20.0 mg/kg/injection, schedule: Q01DX009 (ip), vehicle: saline 101 % of control | dose: 40.0 mg/kg/injection, schedule: Q01DX009 (ip), vehicle: saline 98 % of control | dose: 80.0 mg/kg/injection, schedule: Q01DX009 (ip), vehicle: saline 104 % of control

Nc1nc(N)nc(N)n1 (tested in a mixture with another compound)
inactive: [6] 98 % of control | [7] 92 % of control | [14] 88 % of control

CN1C2=C(C(=O)CCC2)C(c2ccccc2)C2=C1CCCC2=O
inactive: [8] 103 % of control | [9] 100 % of control | [10] 98 % of control

c1ccc(CN2COc3c(ccc4c3OCN(Cc3ccccc3)C4)C2)cc1
inactive: dose: 3.12 mg/kg/injection, schedule: Q01DX009 (ip), vehicle: Klucel (hydroxypropylcellulose) (HPC) 107 % of control | dose: 6.25 mg/kg/injection, schedule: Q01DX009 (ip), vehicle: Klucel (hydroxypropylcellulose) (HPC) 104 % of control and 95 % of control | dose: 12.5 mg/kg/injection, schedule: Q01DX009 (ip), vehicle: Klucel (hydroxypropylcellulose) (HPC) 103 % of control | dose: 25.0 mg/kg/injection, schedule: Q01DX009 (ip), vehicle: Klucel (hydroxypropylcellulose) (HPC) 94 % of control

CCCCCCCCCCCC1C(C#N)C(=O)NC(=O)C1C#N (stereo not given)
inactive: [15] 103 % of control | [16] 94 % of control | [17] 100 % of control

CNc1nc(Cl)cc2onc(C)c12
inactive: dose: 60.0 mg/kg/injection, schedule: Q01DX005 (ip), vehicle: saline with Tween-80 94 % of control | dose: 120.0 mg/kg/injection, schedule: Q01DX005 (ip), vehicle: saline with Tween-80 100 % of control | dose: 240.0 mg/kg/injection, schedule: Q01DX005 (ip), vehicle: saline with Tween-80 103 % of control

CCOC(=O)C1=CNc2ccccc2N=C1N
inactive: dose: 6.25 mg/kg/injection, schedule: Q01DX005 (ip), vehicle: saline with Tween-80 112 % of control | dose: 12.5 mg/kg/injection, schedule: Q01DX005 (ip), vehicle: saline with Tween-80 115 % of control | dose: 25.0 mg/kg/injection, schedule: Q01DX005 (ip), vehicle: saline with Tween-80 113 % of control

CCOC(=O)Nc1ccc2nc(N3CCCCCC3)sc2c1
inactive: [6] 101 % of control | [7] 100 % of control | [14] 102 % of control

Clc1ccc(N=Cc2ccc(C=Nc3ccc(Cl)cn3)cc2)nc1
inactive: [15] 91 % of control | [16] 94 % of control | [17] 93 % of control

C=C(C)c1nc(N)nc(-c2ccc([N+](=O)[O-])cc2)n1
inactive: dose: 100.0 mg/kg/injection, schedule: Q04DX002 (ip), vehicle: Klucel (hydroxypropylcellulose) (HPC) 88 % of control | dose: 200.0 mg/kg/injection, schedule: Q04DX002 (ip), vehicle: Klucel (hydroxypropylcellulose) (HPC) 88 % of control | dose: 400.0 mg/kg/injection, schedule: Q04DX002 (ip), vehicle: Klucel (hydroxypropylcellulose) (HPC) 88 % of control

CCCCCC(=O)N1SC(NC(=O)OC)=Nc2ccccc21
inactive: dose: 50.0 mg/kg/injection, schedule: Q01DX005 (ip), vehicle: acetone 102 % of control | dose: 100.0 mg/kg/injection, schedule: Q01DX005 (ip), vehicle: acetone 107 % of control | dose: 200.0 mg/kg/injection, schedule: Q01DX005 (ip), vehicle: acetone 107 % of control

— PubChem BioAssay AID330 (DTP/NCI, 2004)
